# In patent publication US10308689B2, “Dengue virus (DV) polypeptide sequences, T cell epitopes and methods and uses thereof” (LA JOLLA INSTITUTE FOR ALLERGY AND IMMUNOLOGY, priority 2010, dated 2019):
# Ends that are not written are not given here.
# Tests used:
# [1] = system: PBMC of healthy adult blood donors from Colombo, Sri Lanka; assay: Ex vivo IFNγ ELISPOT, HLA-matched PBMC of Sri Lankan blood donors; assay type: cell-based, human; design: Total Response per epitope: unit not given here; conditions: for # donors responded: number of donors responding to the epitope; for T cell response [SFC]: ex vivo IFNγ SFC/10^6 PBMC; for # of responders: responding donors, HLA allele(s)
# [2] = molecular target: purified HLA molecules (corresponding predicted allele); assay: MHC peptide-binding assay, summary over alleles; design: species or system human
# [3] = restricting HLA allele and serotype as given
# [4] = total over responding donors, restricting HLA allele and serotype as given
# [5] = IFNγ ELISPOT response summed over responding donors, per epitope
# [6] = HLA-matched PBMC, proteome-wide screen
# [7] = HLA allele, supertype and serotype
# [8] = summed IFNγ ELISPOT response per epitope, HLA allele and serotype as given
compound,measurement,setting,value
CC[C@H](C)[C@H](NC(=O)[C@@H]1CCCN1C(=O)CNC(=O)[C@@H](NC(=O)[C@H](C)N)[C@@H](C)O)C(=O)N[C@@H](CC(C)C)C(=O)N[C@H](C(=O)N[C@@H](CC(C)C)C(=O)N[C@@H](Cc1c[nH]c2ccccc12)C(=O)O)[C@@H](C)O,# donors responded,[1]; [3],2
same,T cell response [SFC],[1]; per epitope,938 SFC
same,# of responders,[1],2
same,Total Response per epitope,[1]; [4],938.3
same,IC50,[2]; allele B*5801,13 nM
CC[C@H](C)[C@H](NC(=O)[C@@H]1CCCN1C(=O)CNC(=O)[C@@H](NC(=O)[C@H](C)N)[C@@H](C)O)C(=O)N[C@@H](CO)C(=O)N[C@H](C(=O)N[C@@H](CC(C)C)C(=O)N[C@@H](Cc1c[nH]c2ccccc12)C(=O)O)[C@@H](C)O,# donors responded,[1]; [3],2
same,T cell response [SFC],[1]; per epitope,236 SFC
same,# of responders,[1],2
same,Total Response per epitope,[1]; [4],235.5
same,IC50,[2]; allele B*5801,1 nM
CC(C)C[C@H](NC(=O)[C@@H](NC(=O)[C@H](Cc1c[nH]c2ccccc12)NC(=O)[C@H](C)NC(=O)[C@H](CO)NC(=O)[C@H](C)NC(=O)[C@@H]1CCCN1C(=O)[C@@H](N)Cc1c[nH]cn1)[C@@H](C)O)C(=O)N[C@@H](Cc1ccc(O)cc1)C(=O)O,# donors responded,[1]; [3],3
same,Total Response per epitope,[1]; [4],281.7
same,IC50,[2]; allele B*3501,6 nM
CC[C@H](C)[C@H](NC(=O)[C@H](CCC(N)=O)NC(=O)[C@@H](N)CCCCN)C(=O)N[C@@H](C)C(=O)N[C@@H](CC(N)=O)C(=O)N[C@@H](CCC(=O)O)C(=O)N[C@@H](CC(C)C)C(=O)N[C@@H](CC(N)=O)C(=O)N[C@@H](Cc1ccc(O)cc1)C(=O)O,# donors responded,[1]; [3],1
same,Total Response per epitope,[1]; [4],26.7
same,IC50,[2]; allele B*1501,9 nM
CSCC[C@H](NC(=O)[C@@H](NC(=O)[C@H](Cc1c[nH]cn1)NC(=O)[C@H](Cc1ccccc1)NC(=O)[C@@H](NC(=O)CNC(=O)[C@H](CCC(=O)O)NC(=O)[C@@H](N)CCSC)C(C)C)[C@@H](C)O)C(=O)N[C@@H](Cc1c[nH]c2ccccc12)C(=O)O,IC50,[2]; allele B*4403,3 nM
CC[C@H](C)[C@H](NC(=O)CNC(=O)[C@H](CCC(=O)O)NC(=O)CNC(=O)[C@H](CCC(=O)O)NC(=O)[C@H](CCSC)NC(=O)[C@H](CCC(N)=O)NC(=O)[C@@H](N)CCCNC(=N)N)C(=O)N[C@@H](Cc1ccccc1)C(=O)O,Total Response per epitope,[1]; [5],108.3
same,# donors responded,[1]; [6],1
same,IC50,[2]; allele B*1501,6 nM
CSCC[C@H](NC(=O)[C@H](CCC(N)=O)NC(=O)[C@@H](N)CCCNC(=N)N)C(=O)N[C@@H](CCC(=O)O)C(=O)NCC(=O)N[C@@H](CCC(=O)O)C(=O)NCC(=O)N[C@H](C(=O)N[C@@H](CC(C)C)C(=O)O)C(C)C,Total Response per epitope,[1]; [5],56.7
same,# donors responded,[1]; [6],1
same,IC50,[2]; allele B*1501,19 nM
CC[C@H](C)[C@H](NC(=O)CNC(=O)[C@H](CCC(=O)O)NC(=O)[C@@H]1CCCN1C(=O)[C@@H](N)[C@@H](C)O)C(=O)N[C@H](C(=O)N1CCC[C@H]1C(=O)N[C@@H](CO)C(=O)N[C@@H](CCSC)C(=O)O)[C@@H](C)CC,Total Response per epitope,[1]; [5],2716.7
same,# donors responded,[1]; [6],5
same,T cell response [SFC],[1]; per epitope,2717 SFC
same,# of responders,[1],5
same,IC50,[2]; allele B*3501,8 nM
CC(C)C[C@H](NC(=O)[C@H](CCC(N)=O)NC(=O)[C@@H](NC(=O)[C@H](Cc1ccc(O)cc1)NC(=O)[C@@H](N)C(C)C)[C@@H](C)O)C(=O)N[C@@H](CS)C(=O)N[C@@H](CC(=O)O)C(=O)N[C@@H](Cc1c[nH]cn1)C(=O)N[C@@H](CCCNC(=N)N)C(=O)O,# donors responded,[1]; [7],1
same,Total Response per epitope,[1]; [8],35.0
same,IC50,[2]; allele A*3301,1900 nM
CC(C)[C@H](NC(=O)[C@H](CCC(=O)O)NC(=O)[C@H](Cc1ccc(O)cc1)NC(=O)[C@H](CO)NC(=O)CNC(=O)[C@H](Cc1c[nH]cn1)NC(=O)[C@H](Cc1ccc(O)cc1)NC(=O)[C@H](C)NC(=O)[C@@H](N)Cc1c[nH]c2ccccc12)C(=O)O,# donors responded,[1]; [7],1
same,Total Response per epitope,[1]; [8],25.0
same,IC50,[2]; allele B*5101,11 nM
MALKDFKEF,IC50,[2]; allele B*3501,77 nM
WHYDQDHPY,IC50,[2]; allele B*3501,7600 nM
